From publication PMC10005301, “Prediction of the n-Octanol/Water Partition Coefficients of Basic Compounds Using Multi-Parameter QSRR Models Based on IS-RPLC Retention Behavior in a Wide pH Range” (Molecules, 2023)
Where two headings read alike, the source gives them in different places.

Key:
[1] = From the text: (§1) The retention behavior of the 42 basic compounds (Table 1) were investigated at different ratios of methanol (φ = 0.7–0.1, the interval was 0.1 or 0.05 based on the retention of the investigated solutes). The logk values were plotted versus φ for each solute at pH 7.0, pH 8.0, pH 9.0, and pH 10.0. […] The logD values of the model compounds and verification compounds calculated using Equation (S3) based on the logP and pH values are also listed in Table 1.
(§2) At each pH, the retention time (tR) of every analyte was determined for at least four different volume fractions (φ) of methanol. All the tR values of the solutes were obtained by averaging the results of at least three independent injections. The tR value was corrected using dual-point retention time correction (DP-RTC). For a detailed description of the process, refer to our previous work. For the different hydrophobicities of the studied compounds, benzene, toluene, and benzyl alcohol were used as anchor compounds in the DP-RTC method. The dead time t0 was determined using uracil. For each solute, the logarithm of k was plotted against φ, and logkw was obtained using the Equation (S1). The logD values of the model compounds were calculated using Equation (S3), and the logD–logkw models were established with Equation (S4). The statistical analysis for the regression model was accomplished using Origin 9.4. […]
(§3) Where, k is the capacity factor, φ is the volume fraction of organic modifier in the mobile phase, and S is the constant obtained by linear regression in the equations. […]
and logkw, which is usually called Collander equation [25 ]. lo g lo g wPm k n= + (S2)
Where, m and n are constants obtained by linear regression.
The Eqs. (S1) and (S2) are the basis for the determination of logP by revered- phase liquid chromatography (RPLC) method. For dissociative solutes, it has been confirmed by many studies that the logD calibrated from logP has a better linear correlation with logkw than logP.
For basic compounds, the logD value can be calibrated from Eq. (S3), and the Collander equation can be rewritten into Eq. (S4). log log( )D − −+ −+= + ++P […]
lo g ' lo g 'Dm k n= +w (S4)
Where, pKa1, pKa2 , … p Kan are the dissociation constants of basic compounds of corresponding acids in the mobile phase, pH is the pH value of mobile phase, m′ and n′ are fitting parameters. Han et al. pointed out that although mobile phase pH and pKa of solutes will change along with the varied organic modifier fraction, the difference between a couple of relevant pH and pKa is a constant. Therefore, the used pH and pKa in this paper were both the values obtained at 100% aqueous phase. […]

[2] = IS-RPLC retention on silica-based C18 column, logkw by linear solvent strength model; format: physicochemical
Protocol: as §1
The column temperature was set at 30 °C. Methanol and 20 mmol/L ammonium phosphate buffer (pH = 7.0, 8.0, 9.0, 10.0) was used as the mobile phase to perform isocratic elution. The injection volume was 10 µL and the detection wavelength for each eluted compound was set at its optimum absorption wavelength.
as §2, §3
The Eqs. (S1) and (S2) are the basis for the determination of logP by revered- phase liquid chromatography (RPLC) method. For dissociative solutes, it has been confirmed by many studies that the logD calibrated from logP has a better linear correlation with logkw than logP. […]

[3] = design: method as in UFZ-LSER database; settings: hydrogen bonding parameter B; ref UFZ-LSER database; cited from earlier work
[4] = ref database module of ACD/Labs software, cited from earlier work
[5] = ref database module of ACD/Labs software; cited from earlier work
physchem = experiment: physchem
Protocol: Multi-parameter QSRR models including logD, logkw, ne, A, and B were established using the multiple linear regression (MLR) method. In the process of linear fitting, ne, A, B, and their different combinations were introduced to optimize the models.
The logD values reported in the literature for these four compounds were calculated using Equation (S3) with corresponding pKa, logP, and pH values.
At each pH, the retention time (tR) of every analyte was determined for at least four different volume fractions (φ) of methanol. All the tR values of the solutes were obtained by averaging the results of at least three independent injections. The tR value was corrected using dual-point retention time correction (DP-RTC). For a detailed description of the process, refer to our previous work. For the different hydrophobicities of the studied compounds, benzene, toluene, and benzyl alcohol were used as anchor compounds in the DP-RTC method. The dead time t0 was determined using uracil. For each solute, the logarithm of k was plotted against φ, and logkw was obtained using the Equation (S1). The logD values of the model compounds were calculated using Equation (S3), and the logD–logkw models were established with Equation (S4). The statistical analysis for the regression model was accomplished using Origin 9.4.

[6] = pH 10.0, calculated with literature logP, pKa and pH, Equation (S3)
[7] = pH 7.0, methanol/20 mmol/L ammonium phosphate buffer, Welch Xtimate C18, 30 °C, 100% aqueous extrapolation
[8] = pH 8.0, methanol/20 mmol/L ammonium phosphate buffer, Welch Xtimate C18, 30 °C, 100% aqueous extrapolation
[9] = pH 9.0, methanol/20 mmol/L ammonium phosphate buffer, Welch Xtimate C18, 30 °C, 100% aqueous extrapolation
[10] = pH 10.0, methanol/20 mmol/L ammonium phosphate buffer, Welch Xtimate C18, 30 °C, 100% aqueous extrapolation
[11] = IS-RPLC retention (logkw), pH 7
[12] = IS-RPLC retention (logkw), pH 8
[13] = IS-RPLC retention (logkw), pH 9
[14] = IS-RPLC retention (logkw), pH 10

## Nc1ccc(N)cc1 [1,4-Benzenediamine]
[1]; pH 7
  logDpH 7.0: −0.38
[1]; pH 8
  logDpH 8.0: −0.31
[1]; pH 9
  logDpH 9.0: −0.30
[1]; pH 10
  logDpH 10.0: −0.30
[2]; pH 7
  logkw-pH 7.0: −0.39
[2]; pH 8
  logkw-pH 8.0: −0.35
[2]; pH 9
  logkw-pH 9.0: −0.17
[2]; pH 10
  logkw-pH 10.0: −0.04
[3]
  B: 1.30
[4]; n-octanol/water
  logP: −0.30
[5]
  pKa1: 6.31
  pKa2: 2.97

## Cc1cc(C)nc(C)c1 [2,4,6-Trimethylpyridine]
[1]; pH 7
  logDpH 7.0: 1.44
[1]; pH 8
  logDpH 8.0: 1.91
[1]; pH 9
  logDpH 9.0: 2.00
[1]; [6]
  logDpH 10.0: 2.01
[2]; [7]
  logkw-pH 7.0: 2.06
[2]; [8]
  logkw-pH 8.0: 2.23
[2]; [9]
  logkw-pH 9.0: 2.30
[2]; [10]
  logkw-pH 10.0: 2.34
[3]
  B: 0.63
[4]; n-octanol/water
  logP: 2.01

## CCc1ccccc1N [2-Ethylaniline]
[1]; pH 7
  logDpH 7.0: 1.63
[1]; pH 8
  logDpH 8.0: 1.67
[1]; pH 9
  logDpH 9.0: 1.67
[1]; pH 10
  logDpH 10.0: 1.67
[2]; [7]
  logkw-pH 7.0: 1.87
[2]; [8]
  logkw-pH 8.0: 1.94
[2]; [9]
  logkw-pH 9.0: 1.95
[2]; [10]
  logkw-pH 10.0: 1.95
physchem; pH 7
  chromatographic logD: 1.79
physchem; pH 8
  chromatographic logD: 1.77
physchem; pH 9
  chromatographic logD: 1.75
physchem; pH 10
  chromatographic logD: 1.71
[3]
  B: 0.96

## CCc1ccccn1 [2-Ethylpyridine]
[1]; pH 7.0, calculated with literature logP, pKa and pH, Equation (S3)
  logDpH 7.0: 2.05
[1]; pH 8.0, calculated with literature logP, pKa and pH, Equation (S3)
  logDpH 8.0: 2.05
[1]; pH 9.0, calculated with literature logP, pKa and pH, Equation (S3)
  logDpH 9.0: 2.05
[1]; [6]
  logDpH 10.0: 2.05
[2]; [7]
  logkw-pH 7.0: 1.74
[2]; [8]
  logkw-pH 8.0: 1.79
[2]; [9]
  logkw-pH 9.0: 1.80
[2]; [10]
  logkw-pH 10.0: 1.90
physchem; [11]
  chromatographic logD: 1.62
physchem; [12]
  chromatographic logD: 1.62
physchem; [13]
  chromatographic logD: 1.6
physchem; [14]
  chromatographic logD: 1.65
[3]
  B: 0.61
[4]; Table 4, verification compounds
  logP: 1.67
[4]; n-octanol/water
  logP: 1.67

## Cc1ccccc1N [2-Methylaniline]
[1]; pH 7
  logDpH 7.0: 1.40
[1]; pH 8
  logDpH 8.0: 1.40
[1]; pH 9
  logDpH 9.0: 1.40
[1]; pH 10
  logDpH 10.0: 1.40
[2]; pH 7
  logkw-pH 7.0: 1.47
[2]; pH 8
  logkw-pH 8.0: 1.44
[2]; pH 9
  logkw-pH 9.0: 1.45
[2]; pH 10
  logkw-pH 10.0: 1.49
[3]
  B: 0.97
[4]; n-octanol/water
  logP: 1.40

## Nc1cccc(S(=O)(=O)c2cccc(N)c2)c1 [3,3’-Sulfonyldianiline]
[2]; [7]
  logkw-pH 7.0: 1.78
[2]; [8]
  logkw-pH 8.0: 1.83
[2]; [9]
  logkw-pH 9.0: 1.83
[2]; [10]
  logkw-pH 10.0: 1.47
physchem; [11]
  chromatographic logD: 1.7
physchem; [12]
  chromatographic logD: 1.67
physchem; [13]
  chromatographic logD: 1.2
physchem; [14]
  chromatographic logD: 0.69
[3]
  B: 1.82

## CCOc1ccc(N)cc1 [4-Ethoxyaniline]
[1]; pH 7
  logDpH 7.0: 1.23
[1]; pH 8
  logDpH 8.0: 1.24
[1]; pH 9
  logDpH 9.0: 1.24
[1]; pH 10
  logDpH 10.0: 1.24
[2]; pH 7
  logkw-pH 7.0: 1.45
[2]; pH 8
  logkw-pH 8.0: 1.49
[2]; pH 9
  logkw-pH 9.0: 1.50
[2]; pH 10
  logkw-pH 10.0: 1.60
[3]
  B: 0.95
[4]; n-octanol/water
  logP: 1.24

## Nc1ccc(I)cc1 [4-Iodoaniline]
[2]; [7]
  logkw-pH 7.0: 2.22
[2]; [8]
  logkw-pH 8.0: 2.28
[2]; [9]
  logkw-pH 9.0: 2.29
[2]; [10]
  logkw-pH 10.0: 2.28
physchem; [11]
  chromatographic logD: 2.14
physchem; [12]
  chromatographic logD: 2.1
physchem; [13]
  chromatographic logD: 2.13
physchem; [14]
  chromatographic logD: 2.08
[3]
  B: 1.53

## Cc1c[nH]cn1 [4-Methylimidazole]
[2]; pH 7
  logkw-pH 7.0: −0.08
[2]; pH 8
  logkw-pH 8.0: 0.19
[2]; pH 9
  logkw-pH 9.0: 0.32
[2]; pH 10
  logkw-pH 10.0: 0.39
physchem; [11]
  chromatographic logD: -0.54
physchem; [12]
  chromatographic logD: 0.06
physchem; [13]
  chromatographic logD: 0.08
physchem; [14]
  chromatographic logD: 0.07
[3]
  B: 0.64

## NCc1ccccc1 [Benzylamine]
[2]; [7]
  logkw-pH 7.0: 0.36
[2]; [8]
  logkw-pH 8.0: 0.49
[2]; [9]
  logkw-pH 9.0: 1.05
[2]; [10]
  logkw-pH 10.0: 1.42
[5]
  pKa1: 9.35

## O=C(O)c1cc(O)nc(O)c1 [Citrazinic acid]
[2]; [7]
  logkw-pH 7.0: 1.18
[2]; [8]
  logkw-pH 8.0: 1.18
[2]; [9]
  logkw-pH 9.0: 1.20
[2]; [10]
  logkw-pH 10.0: 1.30
physchem; [11]
  chromatographic logD: 2.29
physchem; [12]
  chromatographic logD: 2.05
physchem; [13]
  chromatographic logD: 1.2
physchem; [14]
  chromatographic logD: 1.87
[3]
  B: 1.23

## CCC(C(N)=O)N1CCCC1=O (stereo not drawn) [Etiracetam]
[2]; [7]
  logkw-pH 7.0: 0.80
[2]; [8]
  logkw-pH 8.0: 0.66
[2]; [9]
  logkw-pH 9.0: 0.82
[2]; [10]
  logkw-pH 10.0: 0.88
physchem; [11]
  chromatographic logD: 0.7
physchem; [12]
  chromatographic logD: 0.54
physchem; [13]
  chromatographic logD: 0.17
physchem; [14]
  chromatographic logD: 0.04
[3]
  B: 1.03

## CN(C)c1ccccc1 [N, N-Dimethylaniline]
[2]; pH 7
  logkw-pH 7.0: 2.18
[2]; pH 8
  logkw-pH 8.0: 2.37
[2]; pH 9
  logkw-pH 9.0: 2.39
[2]; pH 10
  logkw-pH 10.0: 2.44
[3]
  B: 0.96
[5]
  pKa1: 5.07
